Results on eleven compounds are retold here after ChEMBL document CHEMBL3046819, “Synthesis and antimicrobial activity of new pyridine derivatives-I” (2011).

Assay type in all cases: functional
Common to all, as to details: read-out: IZ

Assay [1] relates to Escherichia coli. The assay can be described thus: Antibacterial activity against Escherichia coli ATCC 25922 at 100 ug/ml by cup-plate method.
The test system of assay [2] is Staphylococcus aureus. Kind of assay: Antibacterial activity against Staphylococcus aureus ATCC 9144 at 200 ug/ml by cup-plate method.
The test system of assay [3] is Escherichia coli. The assay can be described thus: Antibacterial activity against Escherichia coli ATCC 25922 at 200 ug/ml by cup-plate method.
In assay [4] the test system is Staphylococcus aureus. The assay can be described thus: Antibacterial activity against Staphylococcus aureus ATCC 9144 at 100 ug/ml by cup-plate method.
Assay [5] deals with Pseudomonas aeruginosa. The assay can be described thus: Antibacterial activity against Pseudomonas aeruginosa ATCC 9027 at 200 ug/ml by cup-plate method.
The subject of assay [6] is Bacillus subtilis. The assay can be described thus: Antibacterial activity against Bacillus subtilis ATCC 6633 at 100 ug/ml by cup-plate method.
The test system of assay [7] is Candida albicans. The assay can be described thus: Antifungal activity against Candida albicans ATCC 10231 at 100 ug/ml by cup-plate method.
For assay [8], the system named is Candida albicans. The assay can be described thus: Antifungal activity against Candida albicans ATCC 10231 at 200 ug/ml by cup-plate method.
Assay [9] has as its system Pseudomonas aeruginosa. The assay can be described thus: Antibacterial activity against Pseudomonas aeruginosa ATCC 9027 at 100 ug/ml by cup-plate method.
For assay [10], the system named is Bacillus subtilis. The assay can be described thus: Antibacterial activity against Bacillus subtilis ATCC 6633 at 200 ug/ml by cup-plate method.

In the case of `Cc1ccc2sc(Nc3ncccc3C(=O)N3CCN(CCO)CC3)nc2c1`, the zone of inhibition at 100 µg/mL in the assay on Escherichia coli [1] is 6 mm; in the assay with Staphylococcus aureus [4], 8 mm; in the assay with Bacillus subtilis [6], 8 mm; with Candida albicans [7], 1 mm; in the assay on Pseudomonas aeruginosa [9] it was 5 mm. Further, the zone of inhibition at 200 µg/mL in the assay on Staphylococcus aureus [2] came out at 10 mm; in the assay on Escherichia coli [3] it was 10 mm; in the assay with Pseudomonas aeruginosa [5], 6 mm; in the assay with Candida albicans [8] it was 2 mm; in the assay on Bacillus subtilis [10], 8 mm.
For `Cc1ccc2nc(Nc3ncccc3C(=O)N3CCN(CCO)CC3)sc2c1`, the zone of inhibition at 100 µg/mL is 0 mm with Escherichia coli [1]; 0 mm in the assay on Staphylococcus aureus [4]; 0 mm with Bacillus subtilis [6]; 2 mm with Candida albicans [7]; 0 mm in the assay on Pseudomonas aeruginosa [9]. The zone of inhibition at 200 µg/mL in the assay with Staphylococcus aureus [2] was determined as 3 mm; with Escherichia coli [3], 6 mm; in the assay on Pseudomonas aeruginosa [5], 0 mm; with Candida albicans [8] it was 5 mm; in the assay on Bacillus subtilis [10] it was 0 mm.
On to `COc1cccc2sc(Nc3ncccc3C(=O)N3CCN(CCO)CC3)nc12`, for which the zone of inhibition at 100 µg/mL turned out to be 3 mm with Escherichia coli [1]; 6 mm in the assay with Staphylococcus aureus [4]; 6 mm with Bacillus subtilis [6]; 4 mm in the assay with Candida albicans [7]; 7 mm in the assay on Pseudomonas aeruginosa [9]. In addition, the zone of inhibition at 200 µg/mL was found to be 8 mm in the assay with Staphylococcus aureus [2]; 3 mm in the assay with Escherichia coli [3]; 9 mm in the assay on Pseudomonas aeruginosa [5]; 4 mm in the assay with Candida albicans [8]; 10 mm with Bacillus subtilis [10].
Consider `O=C(c1cccnc1Nc1nc2ccccc2s1)N1CCN(CCO)CC1`, for which the zone of inhibition at 100 µg/mL in the assay on Escherichia coli [1] worked out at 7 mm; with Staphylococcus aureus [4] it was 6 mm; in the assay with Bacillus subtilis [6] it was 6 mm; with Candida albicans [7], 3 mm; in the assay with Pseudomonas aeruginosa [9], 8 mm. The zone of inhibition at 200 µg/mL with Staphylococcus aureus [2] stood at 7 mm; in the assay with Escherichia coli [3] it was 8 mm; with Pseudomonas aeruginosa [5], 9 mm; in the assay with Candida albicans [8], 5 mm; in the assay with Bacillus subtilis [10] it was 10 mm.
As to `O=C(c1cccnc1Nc1nc2c([N+](=O)[O-])cccc2s1)N1CCN(CCO)CC1`, the zone of inhibition at 100 µg/mL with Escherichia coli [1] is 5 mm; in the assay on Staphylococcus aureus [4], 8 mm; with Bacillus subtilis [6], 8 mm; in the assay with Candida albicans [7] it was 4 mm; with Pseudomonas aeruginosa [9] it was 8 mm. Besides, the zone of inhibition at 200 µg/mL with Staphylococcus aureus [2] was 12 mm; with Escherichia coli [3], 9 mm; in the assay on Pseudomonas aeruginosa [5], 11 mm; in the assay on Candida albicans [8], 7 mm; with Bacillus subtilis [10] it was 9 mm.
As to `O=C(c1cccnc1Nc1nc2cc([N+](=O)[O-])ccc2s1)N1CCN(CCO)CC1`, the zone of inhibition at 100 µg/mL in the assay on Escherichia coli [1] was found to be 4 mm; in the assay on Staphylococcus aureus [4], 6 mm; with Bacillus subtilis [6], 8 mm; in the assay on Candida albicans [7] it was 2 mm; in the assay with Pseudomonas aeruginosa [9] it was 7 mm. Further, the zone of inhibition at 200 µg/mL came out at 11 mm with Staphylococcus aureus [2]; 8 mm in the assay on Escherichia coli [3]; 7 mm with Pseudomonas aeruginosa [5]; 4 mm in the assay on Candida albicans [8]; 8 mm in the assay with Bacillus subtilis [10].
With `O=C(c1cccnc1Nc1nc2ccc([N+](=O)[O-])cc2s1)N1CCN(CCO)CC1`, the zone of inhibition at 100 µg/mL with Escherichia coli [1] was 0 mm; with Staphylococcus aureus [4], 8 mm; with Bacillus subtilis [6] it was 0 mm; in the assay on Candida albicans [7], 0 mm; in the assay on Pseudomonas aeruginosa [9] it was 6 mm. Further, the zone of inhibition at 200 µg/mL worked out at 9 mm in the assay with Staphylococcus aureus [2]; 5 mm with Escherichia coli [3]; 8 mm in the assay on Pseudomonas aeruginosa [5]; 2 mm with Candida albicans [8]; 6 mm in the assay with Bacillus subtilis [10].
`O=C(c1cccnc1Nc1nc2c(Cl)cccc2s1)N1CCN(CCO)CC1`: the zone of inhibition at 100 µg/mL was 6 mm with Escherichia coli [1]; 7 mm in the assay with Staphylococcus aureus [4]; 7 mm in the assay with Bacillus subtilis [6]; 3 mm in the assay on Candida albicans [7]; 7 mm in the assay on Pseudomonas aeruginosa [9]. In addition, the zone of inhibition at 200 µg/mL in the assay with Staphylococcus aureus [2] came to 7 mm; in the assay with Escherichia coli [3], 9 mm; in the assay with Pseudomonas aeruginosa [5] it was 9 mm; in the assay on Candida albicans [8], 6 mm; in the assay on Bacillus subtilis [10], 8 mm.
On to `O=C(c1cccnc1Nc1nc2cc(Cl)ccc2s1)N1CCN(CCO)CC1`, for which the zone of inhibition at 100 µg/mL amounted to 5 mm in the assay with Escherichia coli [1]; 0 mm in the assay with Staphylococcus aureus [4]; 5 mm with Bacillus subtilis [6]; 3 mm with Candida albicans [7]; 0 mm in the assay on Pseudomonas aeruginosa [9]. The zone of inhibition at 200 µg/mL in the assay with Staphylococcus aureus [2] is 0 mm; in the assay on Escherichia coli [3], 5 mm; with Pseudomonas aeruginosa [5] it was 3 mm; in the assay on Candida albicans [8], 4 mm; in the assay with Bacillus subtilis [10], 5 mm.
Regarding `O=C(c1cccnc1Nc1nc2ccc(Cl)cc2s1)N1CCN(CCO)CC1`, the zone of inhibition at 100 µg/mL with Escherichia coli [1] was 6 mm; with Staphylococcus aureus [4], 8 mm; in the assay with Bacillus subtilis [6] it was 7 mm; in the assay with Candida albicans [7] it was 0 mm; in the assay on Pseudomonas aeruginosa [9] it was 7 mm. The zone of inhibition at 200 µg/mL was found to be 9 mm in the assay with Staphylococcus aureus [2]; 10 mm in the assay with Escherichia coli [3]; 10 mm in the assay on Pseudomonas aeruginosa [5]; 1 mm in the assay with Candida albicans [8]; 9 mm with Bacillus subtilis [10].
Take `Cc1cccc2sc(Nc3ncccc3C(=O)N3CCN(CCO)CC3)nc12`: the zone of inhibition at 100 µg/mL turned out to be 3 mm in the assay on Escherichia coli [1]; 4 mm with Staphylococcus aureus [4]; 7 mm in the assay on Bacillus subtilis [6]; 0 mm in the assay with Candida albicans [7]; 6 mm in the assay with Pseudomonas aeruginosa [9]. For the same compound, the zone of inhibition at 200 µg/mL with Staphylococcus aureus [2] worked out at 5 mm; in the assay on Escherichia coli [3], 7 mm; with Pseudomonas aeruginosa [5], 7 mm; in the assay with Candida albicans [8] it was 0 mm; in the assay with Bacillus subtilis [10], 10 mm.
